In US20220226341A1, “Pharmaceutical Composition for Alzheimer's Disease” (Kyoto University, priority 2019, published 2022):

Legend:
[1] = Tissue distribution of radioactivity after single intravenous administration of 14C-labeled Compound 1 (blood-brain barrier penetration); format: in vivo; settings: rats, single iv 5 mg/kg 14C-labeled; for Radioactivity concentration: n = 3
Experimental: [Testing the Penetration of the Compound Through the Blood-Brain Barrier]
Brain permeability (intracerebral transferability) of Compound 1 was evaluated.
^14C-labeled Compound 1 was intravenously administered once in a dose of 5 mg/kg (3.52 MBq/kg) to rats, and histological distribution (biodistribution) thereof was studied.

[2] = test system: Human Herpesvirus Type 7 (HHV-7); assay: Antiviral test against HHV-7 in Sup-T1 cells, TaqMan PCR; format: cell-based
Experimental: [Antiviral Test Against HHV-7]
An antiviral test against HHV-7 using Compound 1 was performed by the following procedure.
Virus strain: Human Herpesvirus Type 7 (HHV-7)
Medium: RPMI-1640+10% FBS+1% penicillin/streptomycin
Detection method: TaqMan PCR
Sup-T1 cells were cultured at a concentration of 1×10^6/ml, Compound 1, 10 μM, was added, and one hour after, HHV-7 virus (1×10^4 infectious units) were sensitized (or unsensitized cells were prepared as a negative control).
After culturing at 37° C. for two hours, the medium was replaced, and Compound 1 was added again. Five days after, 500 μl of the medium was sampled, and HHV-7 virus was quantified by TaqMan PCR. Statistical analysis was performed by Student's t-test.

CDK9/CycT1 = CDK9/CycT1 (Homo sapiens, UniProt P50750); assay: CDK9 inhibitory activity, Off-chip Mobility Shift Assay (MSA); format: biochemical; settings: room temperature, one hour, read-out: IC50 value with respect to CDK9/CycT1
CDK9/CycT1, sequence (P50750 whole entry): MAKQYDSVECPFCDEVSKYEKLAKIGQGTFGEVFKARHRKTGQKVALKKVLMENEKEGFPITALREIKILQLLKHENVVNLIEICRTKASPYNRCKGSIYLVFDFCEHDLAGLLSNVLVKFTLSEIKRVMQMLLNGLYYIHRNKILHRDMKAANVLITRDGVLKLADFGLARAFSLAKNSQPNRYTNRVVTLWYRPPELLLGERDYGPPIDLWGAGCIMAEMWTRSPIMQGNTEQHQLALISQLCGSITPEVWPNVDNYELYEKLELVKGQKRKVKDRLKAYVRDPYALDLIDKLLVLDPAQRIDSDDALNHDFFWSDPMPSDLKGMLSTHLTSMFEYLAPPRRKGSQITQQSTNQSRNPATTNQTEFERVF
CDK9/CycT1, sequence (O60563 whole entry partner): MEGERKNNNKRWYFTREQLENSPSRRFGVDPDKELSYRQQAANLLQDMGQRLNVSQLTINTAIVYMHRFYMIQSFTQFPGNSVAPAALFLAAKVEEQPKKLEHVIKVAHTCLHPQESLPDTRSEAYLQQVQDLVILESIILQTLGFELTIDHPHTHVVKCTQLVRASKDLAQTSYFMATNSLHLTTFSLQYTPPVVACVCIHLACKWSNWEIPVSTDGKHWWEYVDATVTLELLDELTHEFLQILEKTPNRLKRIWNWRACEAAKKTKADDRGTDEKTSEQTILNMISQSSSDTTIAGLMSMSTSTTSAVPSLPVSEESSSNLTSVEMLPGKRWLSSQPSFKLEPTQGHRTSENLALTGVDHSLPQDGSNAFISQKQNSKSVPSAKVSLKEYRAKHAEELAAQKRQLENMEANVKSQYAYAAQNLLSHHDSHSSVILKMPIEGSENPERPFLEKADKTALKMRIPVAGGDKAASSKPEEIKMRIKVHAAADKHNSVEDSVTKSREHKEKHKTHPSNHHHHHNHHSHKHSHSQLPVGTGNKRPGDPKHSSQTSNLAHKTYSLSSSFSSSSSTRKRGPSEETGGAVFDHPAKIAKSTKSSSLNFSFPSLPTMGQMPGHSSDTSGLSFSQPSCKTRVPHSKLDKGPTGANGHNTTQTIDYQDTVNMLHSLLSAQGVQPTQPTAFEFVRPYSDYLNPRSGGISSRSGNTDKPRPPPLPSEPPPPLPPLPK
Experimental: [Assay of CDK9 Inhibitory Activity]
The tests for confirming CDK9 inhibitory activity were carried out by the following procedure according to Off-chip Mobility Shift Assay (MSA).
A substrate/ATP/metal solution (4×) was prepared with use of a kit buffer (20 mM HEPES, 0.01% Triton X-100, 5 mM DTT, pH7.5). A kinase solution (2×) was prepared with use of an assay buffer.
2) The test substance solutions, the substrate/ATP/metal solution, and the kinase solution were mixed in wells of a polypropylene plate, and were caused to react at room temperature for one hour.
3) A termination buffer (QuickScout Screening Assist MSA; Cama Biosciences Inc.)
was added thereto to stop the reaction.
4) Substrate peptides and phosphorylated peptides in the reaction solutions were separated and quantified in LabChip™ System (PerkinElmer Co., Ltd.).
5) Kinase reaction activities were evaluated based on a product ratio (P/(P+S)) calculated from a peak height of the substrate peptide (S) and a peak height of the phosphorylated peptide (P).

Which results are given for `Fc1ccc(N2CCCCC2)c(NC(=S)c2ccncc2)c1` [Compound 1]?
Radioactivity concentration ([1]; Mandibular gland, 5 min): 13355.34 ng eq. of Compound 1/g or mL; Radioactivity concentration ([1]; Mandibular gland, 6 h): 995.48 ng eq. of Compound 1/g or mL; Radioactivity concentration ([1]; Mandibular gland, 24 h): 115.51 ng eq. of Compound 1/g or mL; Radioactivity concentration ([1]; Mandibular gland, 72 h): 8.87 ng eq. of Compound 1/g or mL; Radioactivity concentration ([1]; Mandibular lymph node, 5 min): 5693.66 ng eq. of Compound 1/g or mL; Radioactivity concentration ([1]; Mandibular lymph node, 6 h): 1018.12 ng eq. of Compound 1/g or mL; Radioactivity concentration ([1]; Mandibular lymph node, 24 h): 108.82 ng eq. of Compound 1/g or mL; Radioactivity concentration ([1]; Mandibular lymph node, 72 h): 8.13 ng eq. of Compound 1/g or mL; Radioactivity concentration ([1]; Pancreas, 5 min): 14356.66 ng eq. of Compound 1/g or mL; Radioactivity concentration ([1]; Pancreas, 6 h): 1206.84 ng eq. of Compound 1/g or mL; Radioactivity concentration ([1]; Pancreas, 24 h): 105.62 ng eq. of Compound 1/g or mL; Radioactivity concentration ([1]; Pancreas, 72 h): 7.37 ng eq. of Compound 1/g or mL; Radioactivity concentration ([1]; Prostate gland, 5 min): 5072.42 ng eq. of Compound 1/g or mL; Radioactivity concentration ([1]; Prostate gland, 6 h): 1268.5 ng eq. of Compound 1/g or mL; Radioactivity concentration ([1]; Prostate gland, 24 h): 114.45 ng eq. of Compound 1/g or mL; Radioactivity concentration ([1]; Prostate gland, 72 h): 7.62 ng eq. of Compound 1/g or mL; Radioactivity concentration ([1]; Skeletal muscle, 5 min): 2479.87 ng eq. of Compound 1/g or mL; Radioactivity concentration ([1]; Skeletal muscle, 6 h): 838.23 ng eq. of Compound 1/g or mL; Radioactivity concentration ([1]; Skeletal muscle, 24 h): 97.94 ng eq. of Compound 1/g or mL; Radioactivity concentration ([1]; Skeletal muscle, 72 h): 10.11 ng eq. of Compound 1/g or mL; Radioactivity concentration ([1]; Skin, 5 min): 3889.26 ng eq. of Compound 1/g or mL; Radioactivity concentration ([1]; Skin, 6 h): 2084.85 ng eq. of Compound 1/g or mL; Radioactivity concentration ([1]; Skin, 24 h): 150.1 ng eq. of Compound 1/g or mL; Radioactivity concentration ([1]; Skin, 72 h): 23.26 ng eq. of Compound 1/g or mL; Radioactivity concentration ([1]; Skin, 168 h): 6.57 ng eq. of Compound 1/g or mL; Radioactivity concentration ([1]; Small intestine, 5 min): 6555.86 ng eq. of Compound 1/g or mL; Radioactivity concentration ([1]; Small intestine, 6 h): 1979.83 ng eq. of Compound 1/g or mL; Radioactivity concentration ([1]; Small intestine, 24 h): 156.71 ng eq. of Compound 1/g or mL; Radioactivity concentration ([1]; Small intestine, 72 h): 9.85 ng eq. of Compound 1/g or mL; Radioactivity concentration ([1]; Spleen, 5 min): 6622.6 ng eq. of Compound 1/g or mL; Radioactivity concentration ([1]; Spleen, 6 h): 944.65 ng eq. of Compound 1/g or mL; Radioactivity concentration ([1]; Spleen, 24 h): 113.01 ng eq. of Compound 1/g or mL; Radioactivity concentration ([1]; Spleen, 72 h): 9.68 ng eq. of Compound 1/g or mL; Radioactivity concentration ([1]; Stomach, 5 min): 8261.97 ng eq. of Compound 1/g or mL; Radioactivity concentration ([1]; Stomach, 6 h): 2309.97 ng eq. of Compound 1/g or mL; Radioactivity concentration ([1]; Stomach, 24 h): 227.12 ng eq. of Compound 1/g or mL; Radioactivity concentration ([1]; Testis, 5 min): 2762.22 ng eq. of Compound 1/g or mL; Radioactivity concentration ([1]; Testis, 6 h): 1217.12 ng eq. of Compound 1/g or mL; Radioactivity concentration ([1]; Testis, 24 h): 128.05 ng eq. of Compound 1/g or mL; Radioactivity concentration ([1]; Testis, 72 h): 8.72 ng eq. of Compound 1/g or mL; Radioactivity concentration ([1]; Thymus, 5 min): 5034.15 ng eq. of Compound 1/g or mL; Radioactivity concentration ([1]; Thymus, 6 h): 954.13 ng eq. of Compound 1/g or mL; Radioactivity concentration ([1]; Thymus, 24 h): 97.42 ng eq. of Compound 1/g or mL; Radioactivity concentration ([1]; Thymus, 72 h): 5.22 ng eq. of Compound 1/g or mL; Radioactivity concentration ([1]; Thyroid gland, 5 min): 9550.71 ng eq. of Compound 1/g or mL; Radioactivity concentration ([1]; Thyroid gland, 6 h): 2369.71 ng eq. of Compound 1/g or mL; Radioactivity concentration ([1]; Thyroid gland, 24 h): 793.99 ng eq. of Compound 1/g or mL; Radioactivity concentration ([1]; Thyroid gland, 72 h): 298.2 ng eq. of Compound 1/g or mL; Radioactivity concentration ([1]; Thyroid gland, 168 h): 125.76 ng eq. of Compound 1/g or mL; Brain permeability (intracerebral transferability) ([1]; cerebellum, cerebrum, pituitary gland higher than plasma at 5 minutes): capable of penetrating the brain; Effect of suppressing growth of HHV-7 ([2]; 10 μM, in words): effect of suppressing growth of HHV-7 was confirmed; HHV-7 copy number ([2]; Compound 1 10 μM, medium sampled five days after, TaqMan PCR): 1844.89; IC50 (CDK9/CycT1): 5.8 µM
